# Measured values from PMC7550916 (Computational and Structural Biotechnology Journal, 2020).
# How the values were obtained:
# [1] = system: human A2A^Δ40R (pHALO-tagged); type: binding
# [2] = system: non-transfected HEK-293T cells; assay: ERK1/2 phosphorylation in non-transfected cells; type: cell-based, human; conditions: non-transfected HEK-293T cells (Fig. S1A)
# [3] = target: A2AR (Homo sapiens, UniProt P29274); assay: cAMP determination; conditions: against all agonists (Fig. S8)
# Sequence of A2AR (P29274 whole entry, the tested form may be a part): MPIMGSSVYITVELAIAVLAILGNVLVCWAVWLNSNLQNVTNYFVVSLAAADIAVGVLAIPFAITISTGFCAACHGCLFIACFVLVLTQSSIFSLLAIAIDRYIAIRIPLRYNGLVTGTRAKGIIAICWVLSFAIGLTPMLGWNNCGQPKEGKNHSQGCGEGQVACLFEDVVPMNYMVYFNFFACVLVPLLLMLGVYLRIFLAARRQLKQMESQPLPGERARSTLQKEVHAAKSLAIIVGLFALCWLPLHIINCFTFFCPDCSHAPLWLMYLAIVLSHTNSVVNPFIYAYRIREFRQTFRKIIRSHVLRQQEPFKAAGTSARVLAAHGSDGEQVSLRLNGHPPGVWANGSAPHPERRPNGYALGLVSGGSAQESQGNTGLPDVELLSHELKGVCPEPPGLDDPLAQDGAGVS
Structure (SMILES),ΔΔG (binding free energy difference between wild type and truncated receptor) [1] [kcal/mol],ERK1/2 phosphorylation vs basal [2],effect of antagonist on agonist-induced cAMP production [3]
CCNC(=O)[C@H]1O[C@@H](n2cnc3c(N)nc(NCCc4ccc(CCC(=O)O)cc4)nc32)[C@H](O)[C@@H]1O [CGS-21680],0.5,not significantly different to the basal condition,
Nc1nc2c(cnn2CCc2ccccc2)c2nc(-c3ccco3)nn12 [SCH-58261],,,blockade of cAMP production
